Measurements from patent US20230302036A1, “COMPOSITIONS FOR TREATMENT OF SPINAL MUSCULAR ATROPHY” (priority 2020, published 2023).
Oligonucleotides are written 5' to 3', each unit as a sugar letter and its base; * is a phosphorothioate linkage, no mark a phosphodiester; rarer units and linkages stand in square brackets, end groups in braces. Plain capitals give the bases only. e = 2'-O-(2-methoxyethyl) (MOE); [5mC] = 5-methylcytosine

Legend:
[1] = tested on: endogenous SMN2 E7 alternative splicing; assay: SMN2 E7 alternative splicing by radioactive RT-PCR in HEK293T cells; format: cell-based, human; conditions: HEK293T
Procedure: Alternative splicing was analyzed by radioactive RT-PCR followed by native polyacrylamide gel electrophoresis and autoradiography. Bars display means ± SD of percentage of the radioactivity in the FL band over the sum of radioactivity measurements in the FL and ΔE7 bands of at least three independent transfection experiments. A two-tailed Student’s t test was used to determine the significance between events. (FIG. 1A) HEK293T cells were co-transfected with the SMN2 minigene and expression vectors for WT^res and hC4 Pol II, followed by addition of α-amanitin. (FIG. 1B) Effect of camptothecin (CPT) on SMN2 E7 alternative splicing. HEK293T cells were incubated for at least 6 hours with 3 µM CPT. Combined effects on endogenous SMN2 E7 alternative splicing of transfection with 25 nM ASO1 and treatment with 3 µM TSA for 24 hr (FIG. 1C), 10 mM VPA for 24 hr (FIG. 1D), or 25 µM 5-AZA for 48 hr (FIG. 1E). Combined effects on HEK293T endogenous SMN2 E7 alternative splicing of transfection with 25 nM each of si-hnRNPA1 and si-hnRNPA2, and treatment with 3 µM TSA for 24 hr (FIG. 1F) or 10 mM VPA for 24 hr (FIG. 1G). […]
HEK293T, HeLa, and SMA type I homozygous and carrier fibroblasts 3813 and 3814 (Coriell Cell Repositories, Camden, New Jersey, United States) were grown in Dulbecco’s modified Eagle’s medium (DMEM) containing 4.5 g of glucose and 10% fetal bovine serum (Gibco) at 37° C. Cells were plated at a density of 2×10^5 cells per well in 12-well plates 24 hr before transfection. siRNA (25 nM), plasmid (500 ng), or ASO (25 nM) transfections were performed 24 hr after cells were plated, using 3 µl of Lipofectamine 2000 (Thermo Fisher Scientific) per well in 12-well plates. 24-48 h later, cells were treated with Trichostatin A (Sigma, T8552), Valproic Acid (Sigma, P4543), 5-Azacytidine (Sigma, A2385) or vehicle for the indicated time, and harvested for downstream procedures. […]

[2] = tested on: H3K9me2 along the SMN2 gene; assay: ChIP-qPCR of H3K9me2 distribution along the SMN2 gene in HEK293T cells; format: cell-based, human
[3] = tested on: RNAPII (total, P-Ser5, P-Ser2) along the SMN2 gene; assay: ChIP-qPCR of RNAPII distribution along the SMN2 gene in HEK293T cells; format: cell-based, human
[4] = tested on: H3K9Ac along the SMN2 gene; assay: ChIP-qPCR of H3K9Ac distribution along the SMN2 gene in HEK293T cells; format: cell-based, human; conditions: 10 mM VPA 12 hr or ASO1 transfection
Procedure: Four independent immunoprecipitation replicates were conducted per experiment. Data are represented as mean ± S.D. (n = 4, *p < 0.05, two-tailed Student's t test). […] Top: control Western blot for efficient expression of the c-Myc-SMN fusion protein encoded by plasmid […], cat.# 71687) using anti-tubulin (tub.) as loading control. Bottom: […] Distribution of these histone marks was assessed by ChIP-qPCR, with amplicons mapping near the numbered exons (E) and introns (i). Three independent immunoprecipitation replicates were conducted per experiment. Data are represented as mean ± S.D. (n = 5; in all cases p was much higher than 0.05, two-tailed Student's t test). […] Top: control Western blot for efficient expression of the […] fusion protein encoded by plasmid pEGFP-RNASEH1 (Addgene, cat.# 108699), using anti-actin (act.) as loading control. Bottom: […] Top: control Western blot for efficient AGO1 knockdown using anti-tubulin (tub.) as loading control. Bottom: […] RT-PCR conditions for FIGS. 10A, 10C and 10D were as in FIGS. 1A-1G . Approximately 2×10^6 HEK293T cells per sample were treated for 10 min in 1% (v/v) formaldehyde at room temperature to crosslink protein-DNA complexes. Crosslinking was stopped with glycine at a final concentration of 125 mM. […]

SMA mice [5] = assay: Righting reflex test of P7 SMA mice; format: in vivo, mouse; conditions: for righting reflex delay (in words): untreated mutant ~45 seconds
SMA mice [6] = assay: Grip-strength test of P7 SMA mice; format: in vivo, mouse; conditions: untreated mutants ~35°
[7] = tested on: H3K9me2 on merged SMN1 and SMN2 genes; assay: Genome-wide ChIP-seq analysis of H3K9me2 mark deposition in HEK293T cells; format: cell-based, human

What does the source list for `CCCC(CCC)C(=O)O` [VPA, valproic acid]?
effect of hnRNPA1/A2 depletion in promoting E7 inclusion upon HDAC inhibitor treatment ([1]; 25 nM each si-hnRNPA1 and si-hnRNPA2, no ASO1, 3 µM TSA or 10 mM VPA 24 hr): stronger; effect of VPA on ASO1-promoted H3K9me2 ([2]; HEK293T transfected with ASO1 and treated with 10 mM VPA): completely abolished the ASO1 effect; H3K9me2 marks along the SMN2 gene ([2]; HEK293T, ASO transfection or 10 mM VPA): reduced the H3K9me2 marks relative to the control; RNAPII peak (total, P-Ser5, P-Ser2) in ASO1-transfected cells additionally treated with VPA ([3]; ASO1 plus 10 mM VPA): abolished; roadblocks to elongation in ASO2-transfected cells treated with VPA ([3]; ASO2 plus 10 mM VPA): abolished; H3K9 acetylation along the SMN2 gene [4]: promoted intragenic H3K9 acetylation; righting reflex delay (in words) (SMA mice [5]): not significantly changed; grip strength, inclination angle at which pups fall (SMA mice [6]): ~ 30 °; reverting effect of VPA on SMN1/2 compared with control genes ([7]; ASO1+VPA/control+VPA, 11,738 protein-coding genes): higher than for the majority of the control genes; decrease of H3K9me2 methylation mark ([7]; HEK293T treated with VPA, merged SMN1 and SMN2 genes): 67%

How did the “effect on SMN2 E7 inclusion, agent alone” value ([1]; 25 nM ASO, 3 µM TSA 24 hr, 25 µM 5-AZA 48 hr, 3 µM CPT) turn out when “ASO1: 5′-ATTCACTTTCATAATGCTGG-3′ 2′-O-methoxyethyl-modified oligonucleotide with phosphorothioate backbone and all 5-methyl cytosines; nusinersen variant with 2-nucleotide extension (antisense eA*eT*eT*e[5mC]*eA*e[5mC]*eT*eT*eT*e[5mC]*eA*eT*eA*eA*eT*eG*e[5mC]*eT*eG*eG)” was run?
The value was “promoted inclusion”.

And the “H3K9 dimethylation, peak increase at the promoter and the alternative E7 areas” value ([2]; HEK293T transfected with ASO1 vs scramble oligo)?
Its value is 8 fold.

And the “P-Ser2 RNAPII density” value ([3]; ASO transfection vs scramble)?
The value was “greatly increased”.

What about the “P-Ser5 RNAPII density” value ([3]; ASO transfection vs scramble) of the same molecule?
Its value is “greatly increased”.

What about the “total RNAPII density” value ([3]; ASO transfection vs scramble) of the same molecule?
Its value is “greatly increased”.

What about the “H3K9 acetylation along the SMN2 gene” value [4] of the same molecule?
The value was “not affected”.

And the “righting reflex, time to right” value (SMA mice [5])?
The value was ~ 10 seconds.

And the “righting reflex delay (in words)” value (SMA mice [5])?
Its value is “greatly reduced”.

And the “grip strength, inclination angle at which pups fall” value (SMA mice [6])?
The value was ~ 45 °.

What about the “share of control-set genes with lower ASO1/control fold enrichment than SMN1/2” value ([7]; 11,738 protein-coding genes as reference) of the same molecule?
Its value is ~ 91 % of the genes in the control set.

What about the “enrichment of H3K9me2 ChIP-seq reads compared with the control” value ([7]; HEK293T, merged SMN1 and SMN2 genes) of the same molecule?
The value was 44%.
